Columns and labels:
[1] = target: GDP-bound KRAS wild-type protein (Homo sapiens, UniProt P01116); test: Binding to KRAS by surface plasmon resonance (SPR), dissociation constant KD; settings: 1:1 binding model
Method in brief: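 Recombinant RAS proteins bearing a biotinylated Avi tag and loaded with GDP served as the captured ligand, recaptured fresh every cycle. Binding responses were referenced to an uncoated surface and a buffer-only blank cycle. Dissociation constants were obtained by 1:1 model fitting at 30°C.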

[2] = target: GDP-bound NRAS wild-type protein (Homo sapiens, UniProt P01111); test: Binding to NRAS by surface plasmon resonance (SPR), KD and KD ratio to KRAS; settings: ratio of KD for GDP-bound NRAS wild-type protein to KD for KRAS
GDP-bound NRAS wild-type protein, sequence (P01111 whole entry): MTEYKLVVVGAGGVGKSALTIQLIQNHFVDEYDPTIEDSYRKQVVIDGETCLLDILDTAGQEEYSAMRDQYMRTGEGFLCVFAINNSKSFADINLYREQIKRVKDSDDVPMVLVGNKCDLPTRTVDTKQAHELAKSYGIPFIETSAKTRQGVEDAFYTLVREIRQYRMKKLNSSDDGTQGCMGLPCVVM
Method in brief: (§1)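 Each cycle, GDP-bound biotin-Avi RAS was captured (~100–300 RU), compound concentrations were injected low to high for 75 s each at 100 µL/min, then the chip was regenerated. Buffer: HBS pH 7.4, 10 mM MgCl2, 10 µM GDP, 1 mM DTT, 4% DMSO; 30°C. KD from a 1:1 binding model.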

HRAS wild-type protein = HRAS wild-type protein (Homo sapiens, UniProt P01112); test: Binding to HRAS by surface plasmon resonance (SPR), KD and KD ratio to KRAS; settings: ratio of KD for HRAS wild-type protein to KD for KRAS
HRAS wild-type protein, sequence (P01112 whole entry): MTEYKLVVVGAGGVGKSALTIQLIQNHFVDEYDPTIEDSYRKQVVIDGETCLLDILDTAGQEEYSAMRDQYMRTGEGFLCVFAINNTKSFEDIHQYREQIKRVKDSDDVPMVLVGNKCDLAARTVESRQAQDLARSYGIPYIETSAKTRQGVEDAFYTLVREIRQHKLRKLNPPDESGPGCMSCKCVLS
Method in brief: as §1

[3] = tested on: human lung cancer strain NCI-H441; test: NCI-H441 cell proliferation inhibitory activity (CellTiter-Glo, 4 days); assay type: cell-based; settings: NCI-H441 cells, 4 days, read-out: NCl-H441 IC50
Method in brief: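 Signal came from […] measured per well once the reagent was added. Beforehand, cells were cultured at 37°C and 5% carbon dioxide on a compound series serially diluted in dimethyl sulfoxide.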

GDP-bound KRAS wild-type protein, sequence (P01116 1-188 isoform P01116-2): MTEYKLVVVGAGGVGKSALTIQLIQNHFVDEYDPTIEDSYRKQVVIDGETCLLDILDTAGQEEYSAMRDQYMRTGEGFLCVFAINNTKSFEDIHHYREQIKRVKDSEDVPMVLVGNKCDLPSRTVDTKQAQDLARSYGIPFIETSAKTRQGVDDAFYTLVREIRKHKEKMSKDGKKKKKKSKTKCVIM

| Kd [1] | IC50 [3] | Structure (SMILES) | NRAS /KRAS [2] | HRAS /KRAS (HRAS wild-type protein) |
| --- | --- | --- | --- | --- |
| 4.3 nM | 330 nM | CCC[C@H]1C(=O)N[C@@H](CC(C)C)C(=O)N(CC)CC(=O)N(C)[C@H]2C/C=C\CCN(C2=O)[C@@H](Cc2ccc(C)cc2)C(=O)N(C)CC(=O)N[C@@H](CCc2cc(F)c(C(F)(F)F)c(F)c2)C(=O)N2C[C@H](OCC)C[C@H]2C(=O)NC2(CCC2)C(=O)N(C)[C@@H](C2CCCC2)C(=O)N(C)[C@H](C(=O)N(C)C)CC(=O)N1C [PP2539] | A (a compound having 10 or more and less than 20 is denoted as A) | B (a compound having 3 or more and less than 10 is denoted as B) |
| 4.6 nM | 394 nM | CCC[C@H]1C(=O)N[C@@H](CC(C)C)C(=O)N(CCOC)CC(=O)N(C)[C@H]2C/C=C\CCN(C2=O)[C@@H](Cc2ccc(C)cc2)C(=O)N(C)CC(=O)N[C@@H](CCc2ccc(C(F)(F)F)c(OC)c2)C(=O)N2C[C@H](OCC)C[C@H]2C(=O)NC2(CCC2)C(=O)N(C)[C@@H](C2CCCC2)C(=O)N(C)[C@H](C(=O)N(C)C)CC(=O)N1C [PP2542] | B (a compound having 3 or more and less than 10 is denoted as B) | B (a compound having 3 or more and less than 10 is denoted as B) |
| 4.7 nM | 295 nM | CCC[C@H]1C(=O)N[C@@H](CC(C)C)C(=O)N(CCOC)CC(=O)N(C)[C@H]2C/C=C\CCN(C2=O)[C@@H](Cc2ccc(C)cc2)C(=O)N(C)CC(=O)N[C@@H](CCc2ccc(C(F)(F)F)c(Cl)c2)C(=O)N2C[C@H](OCC)C[C@H]2C(=O)NC2(CCC2)C(=O)N(C)[C@@H](C2CCCC2)C(=O)N(C)[C@H](C(=O)N(C)C)CC(=O)N1C [PP2546] | B (a compound having 3 or more and less than 10 is denoted as B) | B (a compound having 3 or more and less than 10 is denoted as B) |

The next lines start with the molecule.

| Structure (SMILES) | Kd [1] | IC50 [3] | NRAS /KRAS [2] | HRAS /KRAS (HRAS wild-type protein) |
| --- | --- | --- | --- | --- |
| CCC[C@H]1C(=O)N[C@@H](CC(C)C)C(=O)N(CCOC)CC(=O)N(C)[C@H]2C/C=C\CCN(C2=O)[C@@H](Cc2ccc(C)cc2)C(=O)N(C)CC(=O)N[C@@H](CCc2cc(F)c(C(F)(F)F)c(F)c2)C(=O)N2C[C@H](OCC)C[C@H]2C(=O)NC2(CCC2)C(=O)N(C)[C@@H](C2CCCC2)C(=O)N(C)[C@H](C(=O)N(C)C)CC(=O)N1C [PP2541] | 4.9 nM | 374 nM | A (a compound having 10 or more and less than 20 is denoted as A) | B (a compound having 3 or more and less than 10 is denoted as B) |
| CCC[C@H]1C(=O)N[C@@H](CC(C)C)C(=O)N(CC)CC(=O)N(C)[C@H]2C/C=C\CCN(C2=O)[C@@H](Cc2ccc(C)cc2)C(=O)N(C)CC(=O)N[C@@H](CCc2ccc(C(F)(F)F)c(Cl)c2)C(=O)N2C[C@H](OCC)C[C@H]2C(=O)NC2(CCC2)C(=O)N(C)[C@@H](C2CCCC2)C(=O)N(C)[C@H](C(=O)N(C)C)CC(=O)N1C [PP2545] | 4.3 nM | 279 nM | A (a compound having 10 or more and less than 20 is denoted as A) | A (a compound having 10 or more and less than 20 is denoted as A) |
| CCC[C@H]1C(=O)N[C@@H](CC(C)C)C(=O)N2C[C@@H](OC)C[C@H]2C(=O)N(C)[C@H]2C/C=C\CCN(C2=O)[C@@H](Cc2ccc(C)cc2)C(=O)N(C)CC(=O)N[C@@H](CCc2ccc(C(F)(F)F)c(OC)c2)C(=O)N2C[C@H](OCC)C[C@H]2C(=O)NC2(CCC2)C(=O)N(C)[C@@H](C2CCCC2)C(=O)N(C)[C@H](C(=O)N(C)C)CC(=O)N1C [PP2548] | 7.8 nM | 1050 nM | A (a compound having 10 or more and less than 20 is denoted as A) | B (a compound having 3 or more and less than 10 is denoted as B) |
| CCC[C@H]1C(=O)N[C@H]([C@@H](C)CC)C(=O)N2C[C@@H](OC)C[C@H]2C(=O)N(C)[C@H]2C/C=C\CCN(C2=O)[C@@H](Cc2ccc(C)cc2)C(=O)N(C)CC(=O)N[C@@H](CCc2ccc(C(F)(F)F)c(Cl)c2)C(=O)N2C[C@H](OCC)C[C@H]2C(=O)NC2(CCC2)C(=O)N(C)[C@@H](C2CCCC2)C(=O)N(C)[C@H](C(=O)N(C)C)CC(=O)N1C [PP2552] | 0.28 nM | 30.5 nM | A (a compound having 10 or more and less than 20 is denoted as A) | B (a compound having 3 or more and less than 10 is denoted as B) |

From patent EP4603105A1, “PHARMACEUTICAL COMPOSITION CONTAINING CYCLIC COMPOUND HAVING SELECTIVE KRAS INHIBITORY EFFECT AGAINST HRAS AND NRAS” (CHUGAI SEIYAKU KABUSHIKI KAISHA, priority 2022, dated 2024)
